Assay results published in patent US20110288052A1, “NOVEL COMPOUNDS, PHARMACEUTICAL COMPOSITIONS CONTAINING SAME, AND METHODS OF USE FOR SAME” (priority 2008, published 2011).
In brackets after ≈: the same amount, converted by molar mass. Blank lines part the entries; values can stand above or below the molecule they belong to.

Experiments:
[1] = system: MCF-7 human breast cancer cells; test: XTT cytotoxicity assay, MCF-7 (M); assay type: cell-based; settings: MCF7, MCF-7, 72 hours
Procedure: XTT Cytotoxicity Assay The XTT assay is a non-radioactive alternative for the [^51Cr] release cytotoxicity assay. XTT is a tetrazolium salt that is reduced to a formazan dye only by metabolically active, viable cells. The reduction of XTT is measured spectrophotometrically as OD490-OD650. To measure the cytotoxicity of specific compounds against cancer cells, 9×10^3 MCF-7 human breast cancer cells (shown in the tables as “(M)”), obtained from the American Type Culture Collection are plated per well in 96 well plates in DMEM medium with 10% fetal bovine serum, insulin, penicillin, and streptomycin. Following overnight culture at 37° C. and 5% CO2, the compounds to be tested, dissolved in DMSO, are added to the wells in 1 μl volume at the following concentrations: 80, 40, 20, 10, 5, 2.5, 1.25, and 0.625 μg/ml in triplicate. Additional concentrations are tested if required. 1 μl of DMSO is added to triplicate wells are the vehicle control. C75 is run at 40, 20, […], and 5 μg/ml in triplicate as positive controls. After 72 hours of incubation, cells are incubated for 4 hours with the XTT reagent as per manufacturer's instructions (Cell Proliferation Kit II (XTT) Roche). Plates are read at OD490 and OD650 on a Molecular Devices SpectraMax Plus Spectrophotometer. Three wells containing the XTT reagent without cells serve as the plate blank. XTT data are reported as OD490-OD650. Averages and standard error of the mean are computed using SOFTmax Pro software (Molecular Dynamics). The IC50 for the compounds is defined as the concentration of drug leading to a 50% reduction in OD490-OD650 compared to controls. The OD490-OD650 are computed by the SOFTmax PRO software (Molecular Devices) for each compound concentration. IC50 is calculated by linear regression, plotting the FAS activity as percent of control versus drug concentrations. Linear regression, best-fit line, r^2, and 95% confidence intervals are determined using Prism Version 3.0 (Graph Pad Software).

OVCAR3 cells = test: XTT cytotoxicity assay, OVCAR3 (OV); assay type: cell-based; settings: Homo sapiens, OVCAR-3, unit given as ml
Procedure: (§1) XTT Cytotoxicity Assay The XTT assay is a non-radioactive alternative for the [^51Cr] release cytotoxicity assay. XTT is a tetrazolium salt that is reduced to a formazan dye only by metabolically active, viable cells. The reduction of XTT is measured spectrophotometrically as OD490-OD650. To measure the cytotoxicity of specific compounds against cancer cells, 9×10^3 MCF-7 human breast cancer cells (shown in the tables as “(M)”), obtained from the American Type Culture Collection are plated per well in 96 well plates in DMEM medium with 10% fetal bovine serum, insulin, penicillin, and streptomycin. Following overnight culture at 37° C. and 5% CO2, the compounds to be tested, dissolved in DMSO, are added to the wells in 1 μl volume at the following concentrations: 80, 40, 20, 10, 5, 2.5, 1.25, and 0.625 μg/ml in triplicate. Additional concentrations are tested if required. 1 μl of DMSO is added to triplicate wells are the vehicle control. C75 is run at 40, 20, […], and 5 μg/ml in triplicate as positive controls. After 72 hours of incubation, cells are incubated for 4 hours with the XTT reagent as per manufacturer's instructions (Cell Proliferation Kit II (XTT) Roche). Plates are read at OD490 and OD650 on a Molecular Devices SpectraMax Plus Spectrophotometer. Three wells containing the XTT reagent without cells serve as the plate blank. XTT data are reported as OD490-OD650. Averages and standard error of the mean are computed using SOFTmax Pro software (Molecular Dynamics). The IC50 for the compounds is defined as the concentration of drug leading to a 50% reduction in OD490-OD650 compared to controls. The OD490-OD650 are computed by the SOFTmax PRO software (Molecular Devices) for each compound concentration. IC50 is calculated by linear regression, plotting the FAS activity as percent of control versus drug concentrations. Linear regression, best-fit line, r^2, and 95% confidence intervals are determined using Prism Version 3.0 (Graph Pad Software). The test was also run against OVCAR3 cells (“OV”), and HCT116 cells (“H”).

HCT116 cells = test: XTT cytotoxicity assay, HCT116 (H); assay type: cell-based; settings: Homo sapiens, HCT-116
Procedure: as §1

Weight loss screen = assay type: in vivo, Balb/C mice; settings: 60 mg/ml (so in the source), day 1
Procedure: Weight Loss Screen Balb/C mice (Jackson Labs) are utilized for the initial weight loss screening. Animals are housed in temperature and 12 hour day/night cycle rooms and fed mouse chow and water ad lib. Three mice are utilized for each compound tested with vehicle controls in triplicate per experiment. For the experiments, mice are housed separately for each compound tested three mice to a cage. Compounds are diluted in DMSO at 10 mg/ml and mice are injected intraperitoneally with 60 mg/kg in approximately 100 μl of DMSO or with vehicle alone. Mice are observed and weighed daily; average weights and standard errors are computed with Excel (Microsoft). The experiment continues until treated animals reach their pretreatment weights.

[2] = system: MCF-7 human breast cancer cells (fatty acid oxidation pathway activity); test: Fatty acid oxidation ([14C]palmitate to acid soluble products); assay type: cell-based
Procedure: Measurement of Fatty Acid Oxidation and Determination of SC150 of Compounds This assay measures the degradation of [^14C]palmitate into acid soluble products and is a measure of fatty acid oxidation pathway activity in vitro. It is utilized to measure fatty acid oxidation in vitro. MCF-7 human breast cancer cells cultured as above, are plated at 2.5×10^5 cells per well in 24-well plates. Following overnight incubation, the compounds to be tested, solubilized in DMSO, are added at […], 0.39, 1.56, 6.25, 25, and 100 μg/ml in triplicate, with lower concentrations tested if necessary. DMSO is added to triplicate wells for a vehicle control. C75 is run at 5 and 10 μg/ml in triplicate as positive controls. After 1 hour of incubation, medium is removed 100 uM of [^14C] palmitate in cyclodextran and 200 uM carnitine in serum free medium (250 μl volume) is added to each well. After 30 minutes of additional incubation, the reaction is stopped by addition of 2.6N HClO4. Contents of each well are transferred to 1.5 ml Eppendorf tubes and 4N KOH is added. The tubes are incubated for 30 minutes at 60° C. 1 M NaAcetate and 3N H2SO4 is added to each tube and vortexed. The tubes are centrifuged at 1000 rpm for 5 minutes at RT. 250 μl of the supernatant is transferred to a 2 ml eppendorf tube. To each tube is added: 938 μl of chloroform:methanol (1:1), 468 μl chloroform and 281 μl of deionized water. The tubes are vortexed and centrifuged at 1000 rpm for 5 minutes at RT. 750 μl of the upper phase is transferred into a scintillation vial 5 ml of scintillant is added and vials are counted for 1 minute for ^14C. The Beckman Scintillation counter calculates the average cpm values for triplicates. The SC150 for the compounds is defined as the concentration of drug leading to a 150% increase in production of acid soluble products of [^14C] palmitate as compared to untreated controls. This is determined by plotting the average cpm for each inhibitor concentration tested, performing linear regression and computing the best-fit line, r^2 values, and 95% confidence intervals. The average cpm values are computed by the Beckman scintillation counter (Model LS6500) for each compound concentration. Computation of linear regression, best-fit line, r^2, and 95% confidence intervals are calculated using Prism Version 3.0 (Graph Pad Software). If a compound fails to achieve this 150% threshold it is considered negative. The maximum value achieved is also reported (FAO Max).

[3] = Solubility problem noted during the assays; assay type: physicochemical; settings: noted under the 14C column, unit inferred; read-out: Sol Prob (solubility problem at concentration)
[4] = molecular target: rat liver acyl-CoA synthetase; settings: read-out: 50% inhibition of rat liver acyl-CoA synthetase (converted); cited from earlier work
Raji cells = settings: cited from earlier work
Vero cells = settings: cited from earlier work
Hela cells = settings: cited from earlier work
viral HIV protease = viral HIV protease (Human immunodeficiency virus type 1 group M subtype B, UniProt P04585); settings: cited from earlier work

- solubility [3]: 80 µg/mL (≈ 203 µM)
SMILES: CCCCCCCCC1(C)SC(=O)C=C1OCC(=O)Nc1ccc(F)cc1 (stereo not drawn)
- IC50 [1]: 6.5 µg/mL (≈ 16.5 µM)
- IC50 (OVCAR3 cells): 11.1 µg/mL (≈ 28.2 µM)
- IC50 (HCT116 cells): 5.6 µg/mL (≈ 14.2 µM)
- Weight Loss (Weight loss screen): 60 mg/ml: 2.4% (day 1)
- Emax at 1.56 µg/mL ([2]; Homo sapiens, MCF7, at 1.56 μg/ml, read-out: FAO Max): 106%
- FAO SC 150 ([2]; concentration leading to 150% of control acid soluble products, Neg = threshold not reached): Neg

SMILES: CCCC=CCC=CC=CC=NN=NO [Triacsin C, 1-hydroxy-3-(E,E,E-2′,4′,7′-undecatrienylidine) triazene]
- IC50 [4]: 8.7 µM
- growth inhibition in Raji cells (Raji cells): growth inhibition
- growth inhibition of Vero cells (Vero cells): inhibit growth
- growth inhibition of Hela cells (Hela cells): inhibit growth

SMILES: C/C=C/C/C=C/CCC(=O)[C@H]1O[C@H]1C(N)=O [cerulenin, (2S,3R)-2,3-epoxy-4-oxo-7,10 dodecadienoyl amide]
- concentration at which viral HIV protease is inhibited (viral HIV protease): 5 mg/mL
